Molecular target: GluR4 (GluR4flip) (Rattus norvegicus, UniProt P19493, L505Y)
Assay: whole-cell voltage-clamp dose-response
Format: cell-based

GluR4 (GluR4flip), sequence (P19493 21-902 isoform P19493-2 L505Y): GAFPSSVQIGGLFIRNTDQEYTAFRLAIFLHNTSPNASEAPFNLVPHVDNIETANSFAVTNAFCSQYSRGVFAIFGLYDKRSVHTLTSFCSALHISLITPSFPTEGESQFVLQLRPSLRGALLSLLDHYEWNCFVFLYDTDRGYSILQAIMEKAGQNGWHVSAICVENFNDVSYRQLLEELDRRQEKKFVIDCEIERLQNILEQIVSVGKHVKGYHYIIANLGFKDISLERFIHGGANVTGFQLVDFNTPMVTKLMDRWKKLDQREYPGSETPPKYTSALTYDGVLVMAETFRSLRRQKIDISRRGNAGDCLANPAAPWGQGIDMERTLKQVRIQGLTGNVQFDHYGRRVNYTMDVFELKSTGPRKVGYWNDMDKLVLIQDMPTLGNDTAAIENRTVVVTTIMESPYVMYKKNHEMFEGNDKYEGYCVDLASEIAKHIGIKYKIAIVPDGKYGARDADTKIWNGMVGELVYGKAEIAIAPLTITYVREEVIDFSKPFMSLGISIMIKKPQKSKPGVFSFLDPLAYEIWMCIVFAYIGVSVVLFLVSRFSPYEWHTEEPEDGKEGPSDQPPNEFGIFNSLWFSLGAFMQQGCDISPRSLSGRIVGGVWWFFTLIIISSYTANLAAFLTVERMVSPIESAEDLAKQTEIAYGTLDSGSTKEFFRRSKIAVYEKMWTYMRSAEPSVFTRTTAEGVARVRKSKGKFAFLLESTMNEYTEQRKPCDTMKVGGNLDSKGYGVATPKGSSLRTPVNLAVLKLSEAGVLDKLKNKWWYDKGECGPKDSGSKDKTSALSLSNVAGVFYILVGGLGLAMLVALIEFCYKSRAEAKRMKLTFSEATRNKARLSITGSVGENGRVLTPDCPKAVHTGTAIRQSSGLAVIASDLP

C=C(C)[C@H]1CN[C@H](C(=O)O)[C@H]1CC(=O)O [Kainate, 2-carboxy-3-carboxymethyl-4-isopropenyl-pyrrolidine]
EC50: 92 ± 14 µM

From publication PMC2629381 (Biochemistry, 2008)
